Source: patent publication US11648254B2 (Kumquat Biosciences Inc., priority 2021, dated 2023)
pIC50: −log10 of the molar value. Like-named read-outs stand apart in the source and are kept apart here.

Tests used:
[1] = system: MIA PaCa-2 cells (K-Ras G12C); assay: Ras-SOS cellular growth inhibition assay (CellTiter-Glo, 3D); type: cell-based
Procedure, shortened: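 Growth read by CellTiter-Glo luminescence about 5 days after dosing with 3-fold dilutions (9 points), added one day post-seeding. Cells: MIA PaCa-2, 3D culture on ultra-low-attachment surface, medium DMEM/Ham's F12 plus 10% FCS and 2.5% horse serum; IC50 by four-parameter fit.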

SOS1 = SOS1 (Homo sapiens (Human), UniProt Q07889); assay: Ras-SOS interaction assay (HTRF); type: biochemical
[2] = system: NCI-H1975 cells (EGFR T790M L858R); assay: EGFR-SOS cellular inhibition assay (CellTiter-Glo, 3D); type: cell-based
[3] = In vitro plasma protein binding (PPB); type: in vitro ADME; details: percentage of free/unbound compound
[4] = Homo sapiens, MIA PaCa-2, 120 h, MIA PaCa-2, 3D proliferation, about 5 days, read-out: Bio-Cell-Prolif-3D (MiaPaca2 IC50)
[5] = Homo sapiens, MIA PaCa-2, MIA PaCa-2, read-out: IC50 in inhibiting MIA PaCa-2 cell growth
[6] = K-RasG13D utilized, read-out: IC50 inhibition of SOS
[7] = K-RasG13D, read-out: IC50 value against SOS1
[8] = Homo sapiens, 120 h, NCI-H1975, 3D proliferation, about 5 days, read-out: Bio-Cell-Prolif-3D (H1975 IC50)
[9] = Homo sapiens, NCI-H1975, EGFR T790M L858R, read-out: IC50 in inhibiting growth of NCI-H1975 cell line

Row | Compound | pIC50 [1, 4] | pIC50 [1, 5] | pIC50 (SOS1; [6]) | pIC50 (SOS1; [7]) | pIC50 [2, 8] | pIC50 [2, 9] | DMPK-invitro-PPB (Mouse Unbound) [%] [3] | pIC50 ([1]; MIA PaCa-2, 3D proliferation, about 5 days, read-out: Bio-Cell-Prolif-3D (MiaPaca2 IC50)) | pIC50 ([2]; NCI-H1975, 3D proliferation, about 5 days, read-out: Bio-Cell-Prolif-3D (H1975 IC50)) | pIC50 ([2]; NCI-H1975, EGFR T790M L858R, read-out: IC50 in inhibiting growth of NCI-H1975 cell line)
1 | COc1nc2nc(C)nc(N[C@H](C)c3cccc(C(F)F)c3F)c2cc1C1CCS(=O)(=O)CC1 [Compound 102, (R)-4-(4-((1-(3-(difluoromethyl)-2-fluorophenyl)ethyl)amino)-7-methoxy-2-methylpyrido[2,3-d]pyrimidin-6-yl)tetrahydro-2H-thiopyran 1,1-dioxide] | ≥ 6.00 | > 6.30 | > 7.00 | > 7.30 | ≥ 6.00 | > 6.30 | 2.56% |  |  | 
2 | COc1nc2nc(C)nc(N[C@H](C)c3cccc(C(F)F)c3F)c2cc1N1CCN(C)CC1 [Compound 103, (R)—N-(1-(3-(difluoromethyl)-2-fluorophenyl)ethyl)-7-methoxy-2-methyl-6-(4-methylpiperazin-1-yl)pyrido[2,3-d]pyrimidin-4-amine] |  |  | > 7.00 |  |  | > 6.30 | 5.15% |  |  | 
3 | COc1nc2nc(C)nc(N[C@H](C)c3cccc(C(F)F)c3F)c2cc1N1CCN(C(C)C)CC1 [Compound 109, (R)-N-(1-(3-(difluoromethyl)-2-fluorophenyl)ethyl)-6-(4-isopropylpiperazin-1-yl)-7-methoxy-2-methylpyrido[2,3-d] pyrimidin-4-amine] | ≥ 6.00 | > 6.30 | > 7.00 | > 7.30 | ≥ 6.00 | > 6.30 | 3.51% |  |  | 
4 | COc1nc2nc(C)nc(N[C@H](C)c3cccc(C(F)(F)F)c3C)c2cc1C1CCS(=O)(=O)CC1 [Compound 118, (R)-4-(7-methoxy-2-methyl-4-((1-(2-methyl-3-(trifluoromethyl)phenyl)ethyl)amino)pyrido[2,3-d]pyrimidin-6-yl)tetrahydro-2H-thiopyran 1,1-dioxide] | ≥ 6.00 | > 6.30 |  | > 7.30 | ≥ 6.00 | > 6.30 | 0.31% |  |  | 
5 | COc1nc2nc(C)nc(N[C@H](C)c3cccc(C(F)(F)F)c3F)c2cc1C1CCN(C2CCOCC2)CC1 [Compound 344, (R)-N-(1-(2-fluoro-3-(trifluoromethyl)phenyl)ethyl)-7-methoxy-2-methyl-6-(1-(tetrahydro-2H-pyran-4-yl)piperidin-4-yl)pyrido[2,3-d]pyrimidin-4-amine] |  |  | > 7.00 | > 7.30 |  |  | 0.29% |  |  | 
6 | COc1nc2nc(C)nc(N[C@H](C)c3cccc(C(F)(F)F)c3C)c2cc1C1CCN(C2CCOCC2)CC1 [Compound 358, (R)-7-methoxy-2-methyl-N-(1-(2-methyl-3-(trifluoromethyl)phenyl)ethyl)-6-(1-(tetrahydro-2H-pyran-4-yl)piperidin-4-yl)pyrido [2,3-d]pyrimidin-4-amine] |  |  | > 7.00 | > 7.30 |  |  | 0.065% |  |  | 
7 | COc1nc2ncnc(N[C@H](C)c3cccc(C(F)F)c3F)c2cc1C1CCN(C)CC1 [Compound 412, (R)-N-(1-(3-(difluoromethyl)-2-fluorophenyl)ethyl)-7-methoxy-6-(1-methylpiperidin-4-yl)pyrido[2,3-d] pyrimidin-4-amine] | ≥ 6.00 | > 6.30 | > 7.00 | > 7.30 | ≥ 6.00 | > 6.30 |  |  |  | 
8 | CC(C)N1CCN(c2cc3c(N[C@H](C)c4cccc(C(F)F)c4F)ncnc3nc2OC2COC2)CC1 [Compound 413, (R)-N-(1-(3-(difluoromethyl)-2-fluorophenyl)ethyl)-6-(4-isopropylpiperazin-1-yl)-7-(oxetan-3-yloxy)pyrido[2,3-d] pyrimidin-4-amine] | ≥ 6.00 | > 6.30 | > 7.00 | > 7.30 | ≥ 6.00 | > 6.30 |  |  |  | 
9 | CC(C)N1CCN(c2cc3c(N[C@H](C)c4cccc(C(F)F)c4F)ncnc3nc2OC2CN(C)C2)CC1 [Compound 414, (R)-N-(1-(3-(difluoromethyl)-2-fluorophenyl)ethyl)-6-(4-isopropylpiperazin-1-yl)-7-((1-methylazetidin-3-yl)oxy)pyrido [2,3-d]pyrimidin-4-amine] | ≥ 6.00 |  | > 7.00 | > 7.30 | ≥ 6.00 | > 6.30 |  |  |  | 
10 | CCN1CCN(c2cc3c(N[C@H](C)c4cccc(C(F)F)c4F)nc(C)nc3nc2OC2COC2)CC1 [Compound 415, (R)-N-(1-(3-(difluoromethyl)-2-fluorophenyl)ethyl)-6-(4-ethylpiperazin-1-yl)-2-methyl-7-(oxetan-3-yloxy) pyrido[2,3-d]pyrimidin-4-amine] | ≥ 6.00 | > 6.30 | > 7.00 | > 7.30 | ≥ 6.00 | > 6.30 |  |  |  | 
11 | COc1nc2nc(C)nc(N[C@H](C)c3cccc(C(F)(F)C4CCN(C(C)C)CC4)c3)c2cc1N1CCN(C(C)C)CC1 [Compound 418, (R)—N-(1-(3-(difluoro(1-isopropylpiperidin-4-yl)methyl)phenyl)ethyl)-6-(4-isopropylpiperazin-1-yl)-7-methoxy-2-methylpyrido[2,3-d]pyrimidin-4-amine] | ≥ 6.00 | > 6.30 | > 7.00 | > 7.30 | ≥ 6.00 | > 6.30 |  |  |  | 
12 | COc1nc2ncnc(N[C@H](C)c3cccc(C(F)(F)C4CCN(C(C)C)CC4)c3)c2cc1C1CCN(C(C)C)CC1 [Compound 419, (R)—N-(1-(3-(difluoro(1-isopropylpiperidin-4-yl)methyl)phenyl)ethyl)-6-(1-isopropylpiperidin-4-yl)-7-methoxypyrido[2,3-d]pyrimidin-4-amine] | ≥ 6.00 | > 6.30 | > 7.00 | > 7.30 | ≥ 6.00 | > 6.30 |  |  |  | 
13 | COc1nc2nc(C)nc(N[C@H](C)c3cccc(C(F)(F)C4CCN(C(C)C)CC4)c3)c2cc1C1CCN(C(C)C)CC1 [Compound 420, (R)-N-(1-(3-(difluoro(1-isopropylpiperidin-4-yl)methyl)phenyl)ethyl)-6-(1-isopropylpiperidin-4-yl)-7-methoxy-2-methylpyrido[2,3-d] pyrimidin-4-amine] | ≥ 6.00 | > 6.30 | > 7.00 | > 7.30 | ≥ 6.00 | > 6.30 |  |  |  | 
14 | COc1nc2ncnc(N[C@H](C)c3cccc(C(F)(F)C4CCN(C(C)C)CC4)c3)c2cc1N1CCN(C(C)C)CC1 [Compound 421, (R)-N-(1-(3-(difluoro(1-isopropylpiperidin-4-yl)methyl)phenyl)ethyl)-6-(4-isopropylpiperazin-1-yl)-7-methoxypyrido[2,3-d] pyrimidin-4-amine] | ≥ 6.00 | > 6.30 | > 7.00 | > 7.30 | ≥ 6.00 | > 6.30 |  |  |  | 
15 | ((R)-1,4-dioxan-2-yl)(4-(4-(((R)-1-(2-fluoro-3-(trifluoromethyl)-phenyl)ethyl)amino)-7-methoxy-2-methylpyrido[2,3-d]pyrimidin-6-yl)piperazin-1-yl)methanone [Compound 303] |  |  | > 7.00 | > 7.30 |  |  |  | ≥ 6.00 | ≥ 6.00 | > 6.30
